Here are results for 1 compound from paper PMC3017850, “Significance of Cuscutain, a cysteine protease from Cuscuta reflexa, in host-parasite interactions” (BMC Plant Biology, 2010).

The subject of the assay is cuscutain. As to the kind of experiment: colorimetric release of para-nitroaniline at […] nm; Hanes-Woolf plot. It is filed as biochemical, Cuscuta reflexa. Conditions: pH 7.5; 30 °C (50 mM Tris, 300 mM NaCl) or 37 °C (0.1 M Na-citrate, 20% ethanol), both printed.

Peptide text beside a SMILES is read from it. * marks the point of attachment. pNA = O=[N+]([O-])c1ccc(N*)cc1; Cbz = O=C(OCc1ccccc1)*

Consider `N=C(N)NCCC[C@H](NC(=O)[C@H](Cc1ccccc1)NC(=O)OCc1ccccc1)C(=O)Nc1ccc([N+](=O)[O-])cc1` [Cbz-Phe-Arg-pNA] (Cbz-Phe-Arg-pNA), for which the Km (usually the concentration of substrate that gives half-maximal velocity) stood at 393 ± 20 µM.
